What was measured:
Type in all cases: biochemical
Human KLK1 = Human KLK1 (Homo sapiens (Human), UniProt P06870); assay: Determination of the IC50 for KLK1; details: human KLK1, 25° C., substrate H-DVal-Leu-Arg-AFC
Procedure: Determination of the IC50 for KLK1
(§1) Human KLK1 (Callbiochem) was incubated at 25° C. with the fluorogenic substrate H-DVal-Leu-Arg-AFC and various concentrations of the test compound. Residual enzyme activity (initial rate of reaction) was determined by measuring the change in […] at 410 nm and the IC50 value for the test compound was determined.

Human FXIa = Human FXIa (Homo sapiens (Human), UniProt P03951); assay: Determination of the % inhibition for FXIa; details: 40 μM of the test compound, human FXIa, 25° C.; read-out: % Inhibition @ 40 μM (human FXIa)
Human FXIa, sequence (P03951 388-625 limits assumed): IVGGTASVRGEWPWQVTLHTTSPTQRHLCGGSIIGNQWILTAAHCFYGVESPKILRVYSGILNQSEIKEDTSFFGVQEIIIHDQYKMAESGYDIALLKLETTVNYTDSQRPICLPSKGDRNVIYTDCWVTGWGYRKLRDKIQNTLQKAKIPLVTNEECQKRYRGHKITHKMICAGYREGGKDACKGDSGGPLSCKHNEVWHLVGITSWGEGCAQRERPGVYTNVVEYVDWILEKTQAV
Human FXIa, sequence (P03951 19-387 partner limits assumed): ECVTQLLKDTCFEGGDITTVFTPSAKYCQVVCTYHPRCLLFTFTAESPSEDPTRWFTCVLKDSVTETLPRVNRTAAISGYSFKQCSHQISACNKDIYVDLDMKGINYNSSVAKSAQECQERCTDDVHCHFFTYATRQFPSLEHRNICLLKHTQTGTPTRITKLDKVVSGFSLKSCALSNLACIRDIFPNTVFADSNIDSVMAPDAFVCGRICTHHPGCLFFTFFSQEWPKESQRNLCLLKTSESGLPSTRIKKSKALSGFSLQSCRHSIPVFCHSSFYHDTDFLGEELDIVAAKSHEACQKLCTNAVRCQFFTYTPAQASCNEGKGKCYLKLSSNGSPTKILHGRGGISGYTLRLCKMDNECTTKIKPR
Procedure: Determination of the % Inhibition for FXIa
Human FXIa (Enzyme Research Laboratories) was incubated at 25° C. with the fluorogenic substrate Z-Gly-Pro-Arg-AFC and 40 μM of the test compound. Residual enzyme activity (initial rate of reaction) was determined by measuring the change in […].

Human plasma kallikrein = Human plasma kallikrein (Homo sapiens (Human), UniProt P03952); assay: Determination of the IC50 for plasma kallikrein; details: read-out: IC50 (human PKal)
Human plasma kallikrein, sequence (P03952 391-638): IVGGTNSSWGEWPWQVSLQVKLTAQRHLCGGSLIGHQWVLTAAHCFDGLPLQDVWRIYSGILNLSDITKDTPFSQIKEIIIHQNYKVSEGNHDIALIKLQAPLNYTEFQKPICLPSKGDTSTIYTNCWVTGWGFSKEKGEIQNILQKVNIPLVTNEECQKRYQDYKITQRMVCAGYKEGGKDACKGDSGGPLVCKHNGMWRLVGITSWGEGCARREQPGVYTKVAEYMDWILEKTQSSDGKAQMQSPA
Human plasma kallikrein, sequence (P03952 20-390 partner): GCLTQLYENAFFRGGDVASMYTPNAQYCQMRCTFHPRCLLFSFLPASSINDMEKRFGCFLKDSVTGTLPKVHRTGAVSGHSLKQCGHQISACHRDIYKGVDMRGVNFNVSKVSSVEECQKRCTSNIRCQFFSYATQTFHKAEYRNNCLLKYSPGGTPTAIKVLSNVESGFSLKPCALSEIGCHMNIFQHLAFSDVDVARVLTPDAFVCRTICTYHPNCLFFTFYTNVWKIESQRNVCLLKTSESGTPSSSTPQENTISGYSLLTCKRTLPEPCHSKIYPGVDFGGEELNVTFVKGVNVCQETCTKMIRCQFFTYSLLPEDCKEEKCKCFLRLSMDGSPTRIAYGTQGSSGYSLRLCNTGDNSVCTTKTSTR
Procedure: Determination of the IC50 for Plasma Kallikrein
as §1, with “plasma kallikrein (Protogen)” for “KLK1 (Callbiochem)”, “H-DPro-Phe-Arg-AFC” for “H-DVal-Leu-Arg-AFC”

Human KLK1, sequence (P06870 25-262): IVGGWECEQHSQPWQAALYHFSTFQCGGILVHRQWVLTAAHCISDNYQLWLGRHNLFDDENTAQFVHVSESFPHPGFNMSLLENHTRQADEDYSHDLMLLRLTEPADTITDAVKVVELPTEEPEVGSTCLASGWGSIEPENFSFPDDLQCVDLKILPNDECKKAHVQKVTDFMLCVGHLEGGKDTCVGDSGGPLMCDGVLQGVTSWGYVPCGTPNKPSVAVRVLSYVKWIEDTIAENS

Compound | IC50 (Human KLK1) [µM] | inhibition at 40 µM (Human FXIa) [%] | IC50 (Human plasma kallikrein) [µM]
CC(=O)N(C)Cc1ccc(Cn2cc(C(=O)NCCOc3cccc(Cl)c3)c(N)n2)cc1 [Example 82, 3-amino-N-[2-(3-chlorophenoxy)ethyl]-1-({4-[(N-methylacetamido)methyl]phenyl}methyl)pyrazole-4-carboxamide] | > 40 | 0 | 0.71
CN(C)C(=O)N(C)Cc1ccc(Cn2cc(C(=O)NCCOc3cccc(Cl)c3)c(N)n2)cc1 [Example 83, 3-amino-N-[2-(3-chlorophenoxy)ethyl]-1-[(4-{[(dimethylcarbamoyl)(methyl)amino]methyl}phenyl)methyl]pyrazole-4-carboxamide] | > 40 | 0 | 0.298
CC(C)C(=O)N(C)Cc1ccc(Cn2cc(C(=O)NCCOc3cccc(Cl)c3)c(N)n2)cc1 [Example 84, 3-amino-N-[2-(3-chlorophenoxy)ethyl]-1-({4-[(N,2-dimethylpropanamido)methyl]phenyl}methyl)pyrazole-4-carboxamide] | > 40 | 3 | 0.731
Nc1nn(Cc2ccc(Cn3cccnc3=O)cc2)cc1C(=O)NCCOc1cccc(Cl)c1 [Example 86, 3-amino-N-[2-(3-chlorophenoxy)ethyl]-1-({4-[(2-oxopyrimidin-1-yl)methyl]phenyl}methyl)pyrazole-4-carboxamide] | > 40 | 0 | 0.0302
CN(Cc1ccc(Cn2cc(C(=O)NCCOc3cccc(Cl)c3)c(N)n2)cc1)c1ccccn1 [Example 87, 3-amino-N-[2-(3-chlorophenoxy)ethyl]-1-[(4-{[methyl(pyridin-2-yl)amino]methyl}phenyl)methyl]pyrazole-4-carboxamide] | > 40 | 0 | 0.78
Nc1nn(Cc2ccc(-n3cccn3)nc2)cc1C(=O)NCCOc1cccc(Cl)c1 [Example 88, 3-amino-N-[2-(3-chlorophenoxy)ethyl]-1-{[6-(pyrazol-1-yl)pyridin-3-yl]methyl}pyrazole-4-carboxamide] | > 40 | 0 | 9.18
Cc1cnn(-c2ccc(Cn3cc(C(=O)NCCOc4cccc(Cl)c4)c(N)n3)cn2)c1 [Example 89, 3-amino-N-[2-(3-chlorophenoxy)ethyl]-1-{[6-(4-methylpyrazol-1-yl)pyridin-3-yl]methyl}pyrazole-4-carboxamide] | > 40 | 33 | 3.35
Nc1nn(Cc2nc(Cc3ccccc3)no2)cc1C(=O)NCCOc1cccc(Cl)c1 [Example 90, 3-amino-1-[(3-benzyl-1,2,4-oxadiazol-5-yl)methyl]-N-[2-(3-chlorophenoxy)ethyl]pyrazole-4-carboxamide] | > 40 | 0 | > 10
Nc1nn(Cc2ccnc(-c3cccnc3)c2)cc1C(=O)NCCOc1cccc(Cl)c1 [Example 91, 3-amino-N-[2-(3-chlorophenoxy)ethyl]-1-{[2-(pyridin-3-yl)pyridin-4-yl]methyl}pyrazole-4-carboxamide] | > 40 | 0 | 3.78
Nc1nn(Cc2ccc3[nH]ncc3c2)cc1C(=O)NCCOc1cccc(Cl)c1 [Example 92, 3-amino-N-[2-(3-chlorophenoxy)ethyl]-1-(1H-indazol-5-ylmethyl)pyrazole-4-carboxamide] | > 10 | 2 | > 10
Cn1ncc2cc(Cn3cc(C(=O)NCCOc4cccc(Cl)c4)c(N)n3)ccc21 [Example 93, 3-amino-N-[2-(3-chlorophenoxy)ethyl]-1-[(1-methylindazol-5-yl)methyl]pyrazole-4-carboxamide] | > 40 | 2 | > 10
Nc1nn(Cc2ccc(Cn3ccccc3=O)cc2)cc1C(=O)N[C@H]1CCN(c2cccc(Cl)c2)C1 [Example 105, 3-amino-N-[(3S)-1-(3-chlorophenyl)pyrrolidin-3-yl]-1-({4-[(2-oxopyridin-1-yl)methyl]phenyl}methyl)pyrazole-4-carboxamide] | > 40 | 0 | 0.0038
Nc1nn(Cc2ccc(Cn3ccccc3=O)cc2)cc1C(=O)N[C@@H]1CCN(c2cccc(Cl)c2)C1 [Example 106, 3-amino-N-[(3R)-1-(3-chlorophenyl)pyrrolidin-3-yl]-1-({4-[(2-oxopyridin-1-yl)methyl]phenyl}methyl)pyrazole-4-carboxamide] | > 40 | 4 | 0.684
Nc1nn(Cc2ccc(Cn3ccccc3=O)cc2)cc1C(=O)N[C@H]1CCN(c2cccc(Cl)c2)C1=O [Example 107, 3-amino-N-[(3S)-1-(3-chlorophenyl)-2-oxopyrrolidin-3-yl]-1-({4-[(2-oxopyridin-1-yl)methyl]phenyl}methyl)pyrazole-4-carboxamide] | > 40 | 2 | 0.0048
Nc1nn(Cc2ccc(Cn3ccccc3=O)cc2)cc1C(=O)N[C@@H]1CCN(Cc2cccc(Cl)c2)C1 [Example 108, 3-amino-N-[(3R)-1-[(3-chlorophenyl)methyl]pyrrolidin-3-yl]-1-({4-[(2-oxopyridin-1-yl)methyl]phenyl}methyl)pyrazole-4-carboxamide] | > 40 | 0 | 0.299
Nc1nn(Cc2ccc(Cn3ccccc3=O)cc2)cc1C(=O)N[C@H]1CCN(Cc2cccc(Cl)c2)C1 [Example 109, 3-amino-N-[(3S)-1-[(3-chlorophenyl)methyl]pyrrolidin-3-yl]-1-({4-[(2-oxopyridin-1-yl)methyl]phenyl}methyl)pyrazole-4-carboxamide] | > 40 | 0 | 0.384
Nc1nn(Cc2ccc(Cn3ccccc3=O)cc2)cc1C(=O)N[C@@H]1CCN(c2cccc(Cl)c2)C1=O [Example 110, 3-amino-N-[(3R)-1-(3-chlorophenyl)-2-oxopyrrolidin-3-yl]-1-({4-[(2-oxopyridin-1-yl)methyl]phenyl}methyl)pyrazole-4-carboxamide] | > 40 | 13 | 0.004
Nc1nn(Cc2ccc(Cn3ccccc3=O)cc2)cc1C(=O)N[C@H]1CC(=O)N(c2cccc(Cl)c2)C1 [Example 111, 3-amino-N-[(3S)-1-(3-chlorophenyl)-5-oxopyrrolidin-3-yl]-1-({4-[(2-oxopyridin-1-yl)methyl]phenyl}methyl)pyrazole-4-carboxamide] | > 40 | 23 | 0.0421
Nc1nn(Cc2ccc(Cn3ccccc3=O)cc2)cc1C(=O)N[C@H]1CCN(c2cc(Cl)ccn2)C1 [Example 112, 3-amino-N-[(3S)-1-(4-chloropyridin-2-yl)pyrrolidin-3-yl]-1-({4-[(2-oxopyridin-1-yl)methyl]phenyl}methyl)pyrazole-4-carboxamide] | > 40 | 29 | 7.46
C[C@H](COc1cccc(Cl)c1)NC(=O)c1cn(Cc2ccc(Cn3ccccc3=O)cc2)nc1N [Example 113, 3-amino-N-[(2R)-1-(3-chlorophenoxy)propan-2-yl]-1-({4-[(2-oxopyridin-1-yl)methyl]phenyl}methyl)pyrazole-4-carboxamide] | > 40 | 3 | 0.316

Reference: patent publication US10781181B2, “N-((het) arylmethyl)-heteroaryl-carboxamides compounds as plasma kallikrein inhibitors” (Kalvista Pharmaceuticals Limited, priority 2014, dated 2020)
